Values quoted from earlier work in patent US20250295648A1 (priority 2024, published 2025).

Test system: Parkinson's patients with troublesome L-DOPA-induced dyskinesia
Conditions: cited from earlier work

## Fc1ccc(-c2cncc(CNC[C@H]3CCc4ccccc4O3)c2)cc1 [sarizotan]
Phase 2b study, Goetz 2007
  effect on L-DOPA efficacy: two of the three tested doses significantly reduced L-DOPA efficacy
Third (lowest) dose, two phase 3 trials
  reduction of LID: ineffective in reducing LID
